Measurements taken from the Kinase Knowledgebase extract (Sharma et al. 2016).

Assays:
[1] = molecular target: CDK2 (human) (UniProt P24941); assay: Enzyme Assay
[2] = molecular target: CDK2 (human) (UniProt P24941); assay: Enzyme Assay; remark: listed apart in the source

IC50 [1] | IC50 [2] | Structure (SMILES)
1.45 µM | 1.45 µM | Nc1nc(Nc2ccc(N3CCC(N4CCCC(O)C4)CC3)cc2)sc1C(=O)c1ccc2c(c1)OCCO2 (stereo not given)
10 µM | 10 µM | Nc1nc(Nc2ccc(N3CCC(N4CCCC(O)C4)CC3)cc2)sc1C(=O)c1ccc(Cl)cc1 (stereo not given)
10 µM | 10 µM | NC(=O)c1cc(C(=O)c2sc(Nc3ccc(N4CCC(N5CCCC5)CC4)cc3)nc2N)ccc1O
10 µM | 10 µM | CN(C)C1CCN(c2ccc(Nc3nc(N)c(C(=O)c4ccc([N+](=O)[O-])cc4)s3)cc2)CC1
1.01 µM | 1.01 µM | CCNC1CCN(c2ccc(Nc3nc(N)c(C(=O)c4cccc(F)c4)s3)cc2)CC1
